Legend:
[1] = target: T1, human erythrocyte AChE (hAChE) (Homo sapiens, UniProt P22303); assay: acetylcholinesterase inhibition, Ellman spectrometric method; format: biochemical
T1 construct: The human erythrocyte AChE (hAChE, aqueous buffer solution); purchased Sigma Aldrich; host or cells: human erythrocytes (natural source)
Procedure: (§1) In the extent that the toxic activity of TCP especially involves its action on cholinesterases, the effect of the compounds used according to the invention, as well as comparative compounds, on two cholinesterases was studied. The concentration values of each compound required to inhibit 50% of the activity of two cholinesterases were measured. The higher the 50% inhibitory concentration (IC50), the less the compound is neurotoxic since it has a weaker action on the cholinesterase.
(§2) The inhibitory capacity of the compounds on the acetylcholinesterase (AChE) and butyrylcholinesterase (BuChE) biological activity was assessed using the spectrometric method of Ellman (Ellman et al., Biochem. Pharm. 1961, 7, 88-95).
(§3) The acetylthiocholine and butyrylthiocholine iodide, and 5,5-dithiobis (2-nitrobenzoic) acid (DTNB) were purchased from Sigma Aldrich (Steinheim, Germany).
(§4) The BuChE freeze-dried from equine serum (eqBuChE, Sigma Aldrich) was dissolved in 0.1 M phosphate buffer (pH 7.4) to obtain enzyme stock solutions with an enzymatic activity of 2.5 units/mL. The human erythrocyte AChE (hAChE, aqueous buffer solution, ≥500 units/mg of protein (BCA), Sigma Aldrich) was diluted in 20 mM HEPES buffer, pH 8, with 0.1% Triton X-100 to obtain enzymatic solution with an enzymatic activity of 0.25 unit/mL.
(§5) In the procedure, 100 µL of 0.3 mM DTNB dissolved in phosphate buffer, pH 7.4, were added in 96-well plates, followed by 50 µL solution of the test compound and 50 µL enzyme (final 0.05 U). After 5 minutes of pre-incubation at 25° C., the reaction was initiated by injecting 50 µL of 0.1 mM acetyl or butyryl thiocholine iodide solution. The acetyl or butyryl thiocholine hydrolysis was followed by the formation of yellow 5-thio 2-nitrobenzoate anion as the product of the reaction of DTNB with the thiocholine released by the enzymatic hydrolysis of the acetyl or butyryl thiocholine, at a wavelength of 412 nm, using a microplate reader (Synergy 2, Biotek, Colmar, France). The compounds to be tested were dissolved to 5×10^-3 M in analytical grade DMSO. Donepezil or tacrine were used as reference standards. The absorption increase rate at 412 nm was determined 4 minutes after the addition of the acetyl or butyryl thiocholine iodide solution. The tests were carried out with a blank containing all the compounds except the acetyl or butyryl thiocholine in order to take into account non-enzymatic reactions.
(§6) The percentage of inhibition due to the presence of the test compounds was calculated using the following expression: […]
(§7) wherein vi is the rate calculated in the presence of the inhibitor, and v0 is the enzymatic activity.
(§8) IC50 values were graphically determined by plotting the percentage of inhibition as a function of the logarithm of six inhibitor concentrations in the test solution using the GraphPadPrism software (version 6.01, GraphPad Software, La Jolla, Calif., USA). All the experiments were carried out in n=3.

[2] = target: T2, BuChE from equine serum (eqBuChE) (Equus caballus, UniProt P81908); assay: butyrylcholinesterase inhibition, Ellman spectrometric method; format: biochemical
T2 construct: The BuChE freeze-dried from equine serum (eqBuChE, Sigma Aldrich); purchased Sigma Aldrich; host or cells: equine serum (natural source)
T2 sequence (P81908 whole entry): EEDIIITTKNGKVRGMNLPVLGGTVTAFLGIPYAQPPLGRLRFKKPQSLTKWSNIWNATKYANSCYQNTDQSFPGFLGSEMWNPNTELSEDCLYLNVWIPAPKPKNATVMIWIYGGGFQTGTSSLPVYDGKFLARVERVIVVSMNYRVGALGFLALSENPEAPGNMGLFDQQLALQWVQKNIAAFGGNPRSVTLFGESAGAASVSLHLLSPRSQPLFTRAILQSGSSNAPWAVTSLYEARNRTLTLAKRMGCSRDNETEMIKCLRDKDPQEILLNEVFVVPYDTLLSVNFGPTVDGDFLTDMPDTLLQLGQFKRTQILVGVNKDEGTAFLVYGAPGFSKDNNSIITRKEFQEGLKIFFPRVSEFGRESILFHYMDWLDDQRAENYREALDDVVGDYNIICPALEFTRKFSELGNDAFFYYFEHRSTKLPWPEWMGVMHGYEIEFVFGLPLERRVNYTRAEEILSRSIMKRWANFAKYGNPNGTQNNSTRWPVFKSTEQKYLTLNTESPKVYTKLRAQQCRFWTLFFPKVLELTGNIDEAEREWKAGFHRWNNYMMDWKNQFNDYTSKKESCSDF
Procedure: as §1, §2, §3, §4, §5, §6, §7, §8

T1 sequence (P22303 32-617 isoform P22303-2 limits assumed): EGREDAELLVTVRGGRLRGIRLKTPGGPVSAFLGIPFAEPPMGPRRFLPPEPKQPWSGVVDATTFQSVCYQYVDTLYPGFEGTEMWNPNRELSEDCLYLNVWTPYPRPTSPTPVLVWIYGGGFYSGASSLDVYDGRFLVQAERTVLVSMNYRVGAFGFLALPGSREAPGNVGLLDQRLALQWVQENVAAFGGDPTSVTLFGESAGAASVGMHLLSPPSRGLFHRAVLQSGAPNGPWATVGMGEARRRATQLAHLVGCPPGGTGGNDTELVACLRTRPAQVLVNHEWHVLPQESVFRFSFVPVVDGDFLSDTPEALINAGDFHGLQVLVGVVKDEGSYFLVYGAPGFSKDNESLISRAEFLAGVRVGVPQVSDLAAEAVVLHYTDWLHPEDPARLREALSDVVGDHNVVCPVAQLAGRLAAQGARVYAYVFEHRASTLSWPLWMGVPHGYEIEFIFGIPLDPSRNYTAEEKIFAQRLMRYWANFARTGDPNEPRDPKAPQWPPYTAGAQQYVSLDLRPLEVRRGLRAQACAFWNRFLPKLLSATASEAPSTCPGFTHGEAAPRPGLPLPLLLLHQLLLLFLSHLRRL

Compound	IC50 [1] [µM]	IC50 [2] [µM]	inhibition on butyrylcholinesterase / lC50 for eqBuChE, in words [2]	lC50 hAChE ([1]; Table 1, n=3) [mq/L]	lC50 eqBuChE ([2]; Table 1, n=3) [mg/L]
O=P(Oc1ccccc1)(Oc1ccccc1)Oc1ccc(OP(=O)(Oc2ccccc2)Oc2ccccc2)c(-c2ccccc2)c1 [Compound 11, phenylhydroquinone bis(diphenylphosphate)]	35.5	25.8	–	–	–
CC(C)(C)c1cc(OP(=O)(Oc2ccccc2)Oc2ccccc2)ccc1OP(=O)(Oc1ccccc1)Oc1ccccc1 [Compound 12, tert-butyl hydroquinone bis(diphenylphosphate)]	23.8	104	–	–	–
CC(C)(C)c1cc(OP(=O)(Oc2ccccc2)Oc2ccccc2)c(C(C)(C)C)cc1OP(=O)(Oc1ccccc1)Oc1ccccc1 [Compound 13, 2,5-di-tert-butyl hydroquinone bis(diphenylphosphate)]	27.1	111	–	–	–
O=P(Oc1ccccc1)(Oc1ccccc1)Oc1ccc(OP(=O)(Oc2ccccc2)Oc2ccccc2)c2ccccc12 [Compound 14, 1,4-dihydroxynaphthalene bis(diphenylphosphate)]	27.4	127	–	–	–
O=P(Oc1ccccc1)(Oc1ccccc1)Oc1ccc2ccc(OP(=O)(Oc3ccccc3)Oc3ccccc3)cc2c1 [Compound 15, 2,7-dihydroxynaphthalene bis(diphenylphosphate)]	28.8	90.1	–	–	–
O=C(c1ccc(OP(=O)(Oc2ccccc2)Oc2ccccc2)cc1)c1ccc(OP(=O)(Oc2ccccc2)Oc2ccccc2)cc1 [Compound 16, 4,4′-dihydroxybenzophenone bis(diphenylphosphate)]	39.8	164	–	–	–
O=P(Oc1ccccc1)(Oc1ccccc1)Oc1ccc(S(=O)(=O)c2ccc(OP(=O)(Oc3ccccc3)Oc3ccccc3)cc2)cc1 [Compound 17, bis(4-dihydroxyphenyl)sulfone bis(diphenylphosphate)]	30.2	96.4	–	–	–
O=P(Oc1ccccc1)(Oc1ccccc1)Oc1ccc(C(c2ccc(OP(=O)(Oc3ccccc3)Oc3ccccc3)cc2)(C(F)(F)F)C(F)(F)F)cc1 [Compound 18]	34	141	–	–	–
CC(c1ccccc1)(c1ccc(OP(=O)(Oc2ccccc2)Oc2ccccc2)cc1)c1ccc(OP(=O)(Oc2ccccc2)Oc2ccccc2)cc1 [Compound 19, 4,4′-(α-methylbenzylidene)bisphenol bis(diphenylphosphate)]	46	147	–	–	–
O=P(Oc1ccccc1)(Oc1ccccc1)Oc1ccc(C2(c3ccc(OP(=O)(Oc4ccccc4)Oc4ccccc4)cc3)CCCCC2)cc1 [Compound 20, 1,1-bis-(4-hydroxyphenyl)cyclohexane bis(diphenylphosphate)]	35.5	399	–	–	–
O=P(Oc1ccccc1)(Oc1ccccc1)Oc1ccc(C2(c3ccc(OP(=O)(Oc4ccccc4)Oc4ccccc4)cc3)c3ccccc3-c3ccccc32)cc1 [Compound 21, 9,9-bis(4-hydroxyphenyl)fluorene bis(diphenylphosphate)]	29.6	106	–	–	–
CC(c1ccc(OP(=O)(Oc2ccccc2)Oc2ccccc2)cc1)(c1ccc(OP(=O)(Oc2ccccc2)Oc2ccccc2)cc1)c1ccc(OP(=O)(Oc2ccccc2)Oc2ccccc2)cc1 [Compound 23, 1,1,1-Tris(4-hydroxyphenyl)ethane tris(diphenylphosphate)]	19.8	70.9	–	–	–
CC(C)(C)c1ccc(OP(=O)(Oc2ccc(C(C)(C)C)cc2)Oc2ccc(C(C)(C)C)cc2)cc1 [Compound I2, Tri(p-tert-butylphenyl)phosphate, reference compound]	–	–	reduced inhibition	–	–
O=P(Oc1ccccc1)(Oc1ccccc1)Oc1cc(OP(=O)(Oc2ccccc2)Oc2ccccc2)c2ccccc2c1 [X, 1,3-dihydroxynaphthalene bis(diphenylphosphate), reference compound]	26.4	7.21	–	–	–
O=P(Oc1ccccc1)(Oc1ccccc1)Oc1ccc(OP(=O)(Oc2ccccc2)Oc2ccccc2)c(Cl)c1 [Y, 2-chlorohydroquinone bis(diphenylphosphate), reference compound]	41.1	1	–	–	–
CC(=O)c1cc(OP(=O)(Oc2ccccc2)Oc2ccccc2)ccc1OP(=O)(Oc1ccccc1)Oc1ccccc1 [Z, (2,5-dihydroxy)1-acetophenone bis(diphenylphosphate), reference compound]	29.8	0.114	–	–	–
dimer diol (C34-36) bis(diphenylphosphate) [Compound 22]	–	–	–	15.6	88.3

Reference: US20230242830A1 (priority 2020, published 2023)
